Experimental data as given in paper PMC4858680, “A platinum-based hybrid drug design approach to circumvent acquired resistance to molecular targeted tyrosine kinase inhibitors” (Scientific Reports, 2016).
Like-named read-outs stand apart in the source and are kept apart here.

Key:
[1] = target: ABL1(M351T)-phosphorylated (Homo sapiens, UniProt P00519, M351T); assay: biochemical; details: read-out: Percent control
[2] = target: RET(V804TL) (Homo sapiens, UniProt P07949, V804L); assay: biochemical; details: read-out: Percent control
[3] = target: T1, ABL1-phosphorylated (Homo sapiens, UniProt P00519); assay: biochemical; details: read-out: Percent control
[4] = target: P-gp (Homo sapiens, UniProt P08183); assay: in vitro; details: dog, MDCK-MDR1, pH 7.4
P-gp, sequence (P08183 whole entry): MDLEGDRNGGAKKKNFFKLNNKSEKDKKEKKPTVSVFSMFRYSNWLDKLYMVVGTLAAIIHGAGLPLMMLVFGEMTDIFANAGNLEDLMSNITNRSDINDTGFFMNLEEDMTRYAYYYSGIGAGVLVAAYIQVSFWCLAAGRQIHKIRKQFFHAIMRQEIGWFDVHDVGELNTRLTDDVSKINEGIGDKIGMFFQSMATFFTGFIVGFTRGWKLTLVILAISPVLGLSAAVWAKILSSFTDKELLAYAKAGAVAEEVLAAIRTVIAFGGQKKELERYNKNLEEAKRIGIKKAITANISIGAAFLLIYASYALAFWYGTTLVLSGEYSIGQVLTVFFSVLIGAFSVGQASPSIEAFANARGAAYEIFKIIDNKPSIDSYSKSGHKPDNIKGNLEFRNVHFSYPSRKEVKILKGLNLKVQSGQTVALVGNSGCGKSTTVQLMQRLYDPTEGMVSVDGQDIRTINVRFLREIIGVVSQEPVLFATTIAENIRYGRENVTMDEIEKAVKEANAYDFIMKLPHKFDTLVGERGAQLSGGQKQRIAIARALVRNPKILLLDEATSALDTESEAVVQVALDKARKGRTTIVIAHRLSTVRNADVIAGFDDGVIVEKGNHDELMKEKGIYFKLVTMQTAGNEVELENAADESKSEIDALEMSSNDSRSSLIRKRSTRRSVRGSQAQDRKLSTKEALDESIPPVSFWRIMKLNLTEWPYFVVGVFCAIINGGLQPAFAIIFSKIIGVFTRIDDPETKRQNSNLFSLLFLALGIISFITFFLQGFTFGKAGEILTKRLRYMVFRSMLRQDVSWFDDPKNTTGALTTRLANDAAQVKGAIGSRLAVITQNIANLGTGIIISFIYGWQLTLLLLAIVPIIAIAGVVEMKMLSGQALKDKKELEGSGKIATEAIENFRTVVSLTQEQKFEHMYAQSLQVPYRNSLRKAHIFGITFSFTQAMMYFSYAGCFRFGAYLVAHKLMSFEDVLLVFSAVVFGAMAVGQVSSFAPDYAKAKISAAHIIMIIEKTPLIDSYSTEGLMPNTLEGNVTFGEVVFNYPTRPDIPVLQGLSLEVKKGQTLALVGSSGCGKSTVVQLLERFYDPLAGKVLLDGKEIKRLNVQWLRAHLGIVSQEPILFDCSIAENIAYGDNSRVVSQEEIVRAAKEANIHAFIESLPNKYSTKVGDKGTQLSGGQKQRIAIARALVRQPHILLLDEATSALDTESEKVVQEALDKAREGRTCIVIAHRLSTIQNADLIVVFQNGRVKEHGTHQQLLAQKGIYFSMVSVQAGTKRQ

[5] = target: ALK (Homo sapiens, UniProt Q9UM73); assay: biochemical; details: read-out: Percent control
[6] = target: ABL1(F317I)-phosphorylated (Homo sapiens, UniProt P00519, F317I); assay: biochemical; details: read-out: Percent control
[7] = target: T2, EGFR(L858R) (Homo sapiens, UniProt P00533, L858R); details: 10 μM
T2 sequence (P00533 25-1210 L858R): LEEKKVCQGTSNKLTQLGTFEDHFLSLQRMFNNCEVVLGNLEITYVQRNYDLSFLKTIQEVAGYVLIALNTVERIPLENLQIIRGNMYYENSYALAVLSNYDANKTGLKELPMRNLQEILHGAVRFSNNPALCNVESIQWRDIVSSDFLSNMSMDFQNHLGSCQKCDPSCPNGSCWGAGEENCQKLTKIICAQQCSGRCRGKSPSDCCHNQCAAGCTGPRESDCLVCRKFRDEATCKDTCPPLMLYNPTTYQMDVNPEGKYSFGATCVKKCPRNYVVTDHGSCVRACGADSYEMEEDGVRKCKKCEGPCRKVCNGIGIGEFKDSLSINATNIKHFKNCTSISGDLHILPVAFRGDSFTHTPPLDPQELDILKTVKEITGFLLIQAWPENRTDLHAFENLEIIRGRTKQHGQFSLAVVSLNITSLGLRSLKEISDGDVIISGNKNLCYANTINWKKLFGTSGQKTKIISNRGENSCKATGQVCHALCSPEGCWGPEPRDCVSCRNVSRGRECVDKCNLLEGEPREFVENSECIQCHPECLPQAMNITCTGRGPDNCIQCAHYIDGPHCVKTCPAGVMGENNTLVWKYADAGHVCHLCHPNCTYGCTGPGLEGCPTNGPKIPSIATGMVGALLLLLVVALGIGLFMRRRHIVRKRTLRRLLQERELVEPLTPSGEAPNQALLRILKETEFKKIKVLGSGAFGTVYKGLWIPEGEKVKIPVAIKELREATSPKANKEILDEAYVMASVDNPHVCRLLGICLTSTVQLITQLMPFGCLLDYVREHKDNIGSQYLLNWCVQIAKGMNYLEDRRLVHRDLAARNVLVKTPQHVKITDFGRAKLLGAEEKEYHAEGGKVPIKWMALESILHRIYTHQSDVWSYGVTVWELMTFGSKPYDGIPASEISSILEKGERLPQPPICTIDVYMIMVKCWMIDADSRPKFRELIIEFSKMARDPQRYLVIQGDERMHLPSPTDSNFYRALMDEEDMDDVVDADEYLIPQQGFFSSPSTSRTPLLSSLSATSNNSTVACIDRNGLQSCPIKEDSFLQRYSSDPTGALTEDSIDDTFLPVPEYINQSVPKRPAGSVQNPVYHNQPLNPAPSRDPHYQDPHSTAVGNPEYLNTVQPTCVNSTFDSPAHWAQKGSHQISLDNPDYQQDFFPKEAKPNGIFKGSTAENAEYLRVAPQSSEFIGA

[8] = system: K562; assay: Anticancer activity (cytotoxicity) in CML cell line; assay type: cell-based
[9] = target: T3, EGFR(L861Q) (Homo sapiens, UniProt P00533, L861Q); details: 10 μM
T3 sequence (P00533 25-1210 L861Q): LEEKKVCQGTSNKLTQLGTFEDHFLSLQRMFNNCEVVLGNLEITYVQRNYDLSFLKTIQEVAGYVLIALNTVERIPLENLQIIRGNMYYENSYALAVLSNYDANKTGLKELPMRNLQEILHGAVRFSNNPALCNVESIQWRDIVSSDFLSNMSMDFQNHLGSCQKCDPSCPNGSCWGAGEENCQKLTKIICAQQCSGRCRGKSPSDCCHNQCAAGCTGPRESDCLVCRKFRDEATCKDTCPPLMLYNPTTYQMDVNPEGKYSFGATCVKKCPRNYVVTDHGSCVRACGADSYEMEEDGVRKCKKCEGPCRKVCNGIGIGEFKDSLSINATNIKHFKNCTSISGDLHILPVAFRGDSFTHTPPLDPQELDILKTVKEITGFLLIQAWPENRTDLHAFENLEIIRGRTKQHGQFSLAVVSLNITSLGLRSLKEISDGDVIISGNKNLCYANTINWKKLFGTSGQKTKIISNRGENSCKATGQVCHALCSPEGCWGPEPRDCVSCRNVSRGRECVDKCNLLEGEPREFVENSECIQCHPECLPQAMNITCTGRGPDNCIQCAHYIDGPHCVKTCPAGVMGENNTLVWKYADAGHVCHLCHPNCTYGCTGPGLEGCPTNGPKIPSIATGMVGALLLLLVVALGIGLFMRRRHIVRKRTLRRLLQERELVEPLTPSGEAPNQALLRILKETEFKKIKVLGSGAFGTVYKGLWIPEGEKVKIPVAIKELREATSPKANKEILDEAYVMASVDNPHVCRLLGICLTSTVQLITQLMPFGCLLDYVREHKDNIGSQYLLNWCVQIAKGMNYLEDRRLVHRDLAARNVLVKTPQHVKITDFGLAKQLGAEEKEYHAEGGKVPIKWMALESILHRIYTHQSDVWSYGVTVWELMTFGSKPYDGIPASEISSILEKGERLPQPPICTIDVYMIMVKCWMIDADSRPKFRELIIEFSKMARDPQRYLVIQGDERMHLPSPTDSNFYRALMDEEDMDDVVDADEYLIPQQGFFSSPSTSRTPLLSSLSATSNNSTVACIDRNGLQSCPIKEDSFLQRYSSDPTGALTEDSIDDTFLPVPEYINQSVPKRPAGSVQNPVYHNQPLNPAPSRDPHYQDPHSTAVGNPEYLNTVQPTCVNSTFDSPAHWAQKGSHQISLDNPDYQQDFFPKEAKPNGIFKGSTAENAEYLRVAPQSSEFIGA

[10] = target: T4, EGFR(T790M) (Homo sapiens, UniProt P00533, T790M); details: 10 μM
[11] = target: T3, EGFR(L861Q); assay: biochemical; details: read-out: Percent control
[12] = target: T4, EGFR(T790M); assay: biochemical; details: read-out: Percent control
[13] = target: T2, EGFR(L858R); assay: biochemical; details: read-out: Percent control
[14] = target: SRC (Homo sapiens, UniProt P12931); assay: biochemical; details: read-out: Percent control
[15] = system: HCC827; assay: Anticancer activity (cytotoxicity) in NSCLC cell line; assay type: cell-based; details: Homo sapiens, HCC827, EGFR ΔE746-A750 (sensitizing)
[16] = target: T5, ZAP70 (Homo sapiens, UniProt P43403); assay: biochemical; details: read-out: Percent control
T5 sequence (P43403 1-619): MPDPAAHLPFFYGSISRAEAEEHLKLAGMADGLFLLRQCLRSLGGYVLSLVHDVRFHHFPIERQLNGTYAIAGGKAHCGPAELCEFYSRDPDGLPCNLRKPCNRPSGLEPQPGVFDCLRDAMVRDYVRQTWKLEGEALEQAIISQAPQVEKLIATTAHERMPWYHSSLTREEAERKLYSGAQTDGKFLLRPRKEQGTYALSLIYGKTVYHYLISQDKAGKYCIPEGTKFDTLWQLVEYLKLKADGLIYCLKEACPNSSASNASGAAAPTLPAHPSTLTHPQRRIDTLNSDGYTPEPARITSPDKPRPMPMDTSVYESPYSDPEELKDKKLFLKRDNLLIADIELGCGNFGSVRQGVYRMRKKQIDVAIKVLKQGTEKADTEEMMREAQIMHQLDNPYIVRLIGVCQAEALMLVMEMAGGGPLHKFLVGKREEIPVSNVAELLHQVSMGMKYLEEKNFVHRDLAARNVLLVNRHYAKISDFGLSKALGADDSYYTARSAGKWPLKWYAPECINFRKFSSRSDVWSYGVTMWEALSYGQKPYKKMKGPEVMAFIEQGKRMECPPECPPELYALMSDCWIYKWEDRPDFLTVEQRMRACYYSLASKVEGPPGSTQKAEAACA

[17] = target: FRK (Homo sapiens, UniProt P42685); assay: biochemical; details: read-out: Percent control
[18] = target: ABL1(H396P)-nonphosphorylated (Homo sapiens, UniProt P00519, H396P); details: 10 μM
[19] = target: ABL1(F317L)-phosphorylated (Homo sapiens, UniProt P00519, F317L); details: 10 μM
[20] = Drug accumulation in organs of BALB/c mice; assay type: in vivo; details: intravenous 12.5 mg/kg, 30 min
[21] = target: ABL1(T315I)-phosphorylated (Homo sapiens, UniProt P00519, T315I); details: 10 μM
[22] = target: ABL1(T315I)-nonphosphorylated (Homo sapiens, UniProt P00519, T315I); details: 10 μM
[23] = target: ABL1(Q252H)-nonphosphorylated (Homo sapiens, UniProt P00519, Q252H); details: 10 μM
[24] = target: T1, ABL1-phosphorylated; details: 10 μM
[25] = target: P-gp (MDCKII–P-gp) (Homo sapiens, UniProt P08183); details: 10 μM, mean of three experiments
P-gp (MDCKII–P-gp), sequence (P08183 whole entry): as the sequence (P08183 whole entry) above

[26] = target: CSF1R (Homo sapiens, UniProt P07333); details: 10 μM

## C#Cc1cccc(Nc2ncnc3cc(OCCOC)c(OCCOC)cc23)c1 [Erlotinib]
[1]
  remaining activity at 10 µM: 0.7%
[2]
  remaining activity at 10 µM: 100%
[3]
  remaining activity at 10 µM: 0.8%
[4]
  Papp A→B at 120 min, 10 μM: 18.4 ×10⁻⁶ cm/s
  Papp B→A at 120 min, 10 μM: 74.2 ×10⁻⁶ cm/s
[5]
  remaining activity at 10 µM: 10.7%
[6]
  remaining activity at 10 µM: 9.9%

## Cc1ccc(NC(=O)c2ccc(CN3CCN(C)CC3)cc2)cc1Nc1nccc(-c2cccnc2)[n+]1[Pt-2]1([Cl])[NH2+]C2CCCCC2[NH2+]1 (stereo not drawn) [1b, oxaliplatin-imatinib]
[7]
  Percent control: 81%
[8]; CML cell line, Bcr-Abl positive, Table 1, read-out: Anticancer activity (IC50) K562
  IC50: 2.27 ± 0.33 µM
[8]; Table 2, read-out: Anticancer activity (IC50) K562 Sensitive parental
  IC50: 2.27 ± 0.33 µM
[9]
  Percent control: 42%
[10]
  Percent control: 78%

## Cc1ccc(NC(=O)c2ccc(CN3CCN(C)CC3)cc2)cc1Nc1nccc(-c2cccnc2)n1 [Imatinib, reference compound]
[11]
  remaining activity at 10 µM: 100%
[12]
  remaining activity at 10 µM: 100%
[13]
  remaining activity at 10 µM: 100%

## COc1cc2c(Nc3ccc(Br)cc3F)ncnc2cc1OCC1CCN(C)CC1 [Vandetanib, reference compound]
[14]
  remaining activity at 10 µM: 0.7%
[15]
  IC50: 0.011 ± 0.002 µM
[16]
  remaining activity at 10 µM: 100%
[17]
  remaining activity at 10 µM: 1.7%

## C#Cc1cccc(Nc2c3cc(OCCOC)c(OCCOC)cc3nc[n+]2[Pt@SP2-2]([NH3+])([NH3+])[Cl])c1 [2a, cisplatin-erlotinib]
[18]
  Percent control: 0.9%
[19]
  Percent control: 25%
[20]
  brain accumulation, times higher than that of cisplatin: 7 times
  brain accumulation, times higher than that of erlotinib: > 3 times
[21]
  Percent control: 30%
[22]
  Percent control: 41%
[23]
  Percent control: 13%
[24]
  Percent control: 16%
[25]
  A to B transport (apparent permeability): 3.32 × 10^−6
  B to A transport (apparent permeability): 2.82 × 10^−6
[26]
  Percent control: 91%
